From patent US12162857B2, “Antiviral compounds” (priority 2022, dated 2024) come the findings set out here.

pEC50: −log10 of the molar value.

This assay has as its system HMPV A2 TN/94-49. Nature of the assay: HMPV antiviral assay: LLC-MK2 cells, ATP-Lite readout. In kind it is cell-based. The following applies: LLC-MK2, 168 h, MOI 0.005, 7 days incubation. As for the experimental part:
In vitro HMPV antiviral activity was evaluated using the clinical isolate A2 strain TN 94-49 and LLC-MK2 cells (ATCC #CCL-7), an immortalized kidney epithelial cell line from Macaca mulatta. Compounds were resuspended in dimethyl sulfoxide (DMSO) at 10 mM, serially diluted and added to a 384-well source plate. Subsequently, the compounds were diluted and transferred onto 384-well assay plates using the Echo-650 automated liquid handling system (Beckman Coulter, Indiana). The test compounds were assessed in duplicate at a top concentration of 2 μM followed by 2.5-fold serial dilutions to give a total of 10 concentration points. DMSO control wells were also included on the assay plates and were either infected or not, acting as positive and negative controls. A2 TN 94-49 virus infections were performed in-suspension with LLC-MK2 cells. The cells were washed twice with PBS and removed from the cell-culture flask with 0.25% trypsin-EDTA (Thermo Fisher Scientific, MA). The trypsin-EDTA was inactivated by resuspending in 2% fetal bovine serum (FBS) and OptiMEM (ThermoFisher Scientific, MA) containing 1% penicillin-streptomycin. Cells were pelleted by centrifuging for 5 minutes at 800 rpm, the supernatant was removed, and cells were re-suspended and washed in PBS plus 100 μg/mL CaCl2). This step was performed twice. Cells were then re-suspended in serum-free (SF)-OptiMEM containing 4 μg/mL TPCK-Trypsin (Sigma Aldrich, MO), 1% penicillin-streptomycin (ThermoFisher Scientific, MA) and 100 μg/mL CaCl2). Cells were counted and seeded at a density of 5,000 cells/well, 12.5 μL/well. Virus infections were done at a multiplicity of infection (MOI) of 0.005 with 12.5 μL added per well. Virus infections were performed in infection media which contained SF-OptiMEM, 100 μg/mL CaCl2) and 1% penicillin-streptomycin. HMPV viral stocks are suspended in infection media+5% glycerol, thus an equal volume of infection media+5% glycerol was added to uninfected wells to equalize the final % glycerol across all wells of the assay plate. The final concentration of TPCK-trypsin was 2 μg/mL. The assay plates were incubated at 37° C., 5% CO2 for 7 days. After 7 days incubation, 12.5 μL of ATP-Lite (PerkinElmer, MA) was added to each well and the raw luminescence values were determined using the Envision 2104 (Perkin Elmer, MA). The average of the raw luminescence values for the cells and virus only positive control wells was subtracted from all conditions tested and the percent cell health was determined by dividing these values by the average of the cells only negative control wells. EC50 values were then calculated by non-linear regression using a four-parameter curve logistic equation. The curve fit model employed was XLFit Dose Response One Site Model 200: y=(A+(B/(1+((x/C)^D)))), where A is the minimum y value, B is the maximum y value, C is the log EC50 value, and D is the slope factor. […] EC50 ranges are as follows: A<1 μM; B>1 μM.
For the compound `COc1cc(C(=O)NC[C@@](O)(c2ccccc2)c2cc(C(C)(C)O)cc(-c3ccc(F)c(Cl)c3Cl)n2)cc2cn(C(F)F)nc12` [Example 154], the pEC50 – broadly, −log10 of the EC50, conventionally taken in molar units – was greater than 6.00.

For `COc1cc(C(=O)NC[C@@](O)(c2ccccc2)c2cc(C(C)(C)O)c(Cl)c(-c3ccc4c(c3Cl)OC(F)(F)O4)n2)cc2cc(C3CC3)nn12` [Example 155], the pEC50 was greater than 6.00.

Turning to `COc1cc(C(=O)NC[C@@](O)(c2ccccc2)c2cc(C(C)(C)O)cc(-c3ccc4c(c3Cl)OC(F)(F)O4)n2)cc2cn(C3CC3)nc12` [Example 156], the pEC50 was greater than 6.00.

Regarding `COc1cc(C(=O)NC[C@@](O)(c2ccccc2)c2cc(C(C)(C)O)cc(-c3ccc4c(c3Cl)OC(F)(F)O4)n2)cc2sc(C)nc12` [Example 157], the pEC50 was greater than 6.00.

Regarding `COc1cc(C(=O)NC[C@@](O)(c2ccccc2)c2cc(C(C)(C)O)cc(-c3ccc4c(c3Cl)OC(F)(F)O4)n2)cc2cn(C(F)F)nc12` [Example 158], the pEC50 was greater than 6.00.

The compound `COc1cc(C(=O)NC[C@@](O)(c2ccccc2)c2cc(C(C)(C)C(N)=O)c(F)c(-c3cc(Cl)c(F)cc3F)n2)cc2cn(C3CC3)nc12` [Example 160] showed a pEC50 greater than 6.00.

`COc1cc(C(=O)NC[C@@](O)(c2ccccc2)c2cc(C(C)(C)C(N)=O)c(F)c(-c3cc(Cl)c(F)cc3F)n2)cc2cn(C(F)F)nc12` [Example 161] had a pEC50 of less than 6.00.

`CC(C)(C(N)=O)c1cc([C@@](O)(CNC(=O)c2cc(Cl)c3nn(C4CC4)cc3c2)c2ccccc2)nc(-c2cc(Cl)c(F)cc2F)c1F` [Example 162] showed a pEC50 greater than 6.00.

For `COc1cc(C(=O)NC[C@@](O)(c2ccccc2)c2cc(C(C)(C)C(N)=O)c(F)c(-c3cc(Cl)c(F)cc3F)n2)cc2sc(C)nc12` [Example 163], the negative logarithm of the EC50 (pEC50) was less than 6.00.

For `COc1cc(C(=O)NC[C@](O)(c2cc(C3(O)COC3)c(F)c(-c3ccc(F)cc3)n2)C2CC2)cc2cn(C3CC3)nc12` [Example 166], the pEC50 is less than 6.00.

As for `COc1cc(C(=O)NC[C@](O)(c2cc(C3(O)COC3)c(F)c(-c3cc(Cl)c(F)cc3F)n2)C2CC2)cc2cn(C3CC3)nc12` [Example 167], the pEC50 was less than 6.00.

The compound `COc1cc(C(=O)NC[C@](O)(c2cc(C3(O)COC3)c(F)c(-c3cc(Cl)c(F)cc3F)n2)C2CC2)cc2cn(C3(F)CC3)nc12` [Example 168] had a pEC50 of less than 6.00.

In turn, `COc1cc(C(=O)NC[C@](O)(c2cc(C3(O)COC3)c(F)c(-c3cc(Cl)c(F)cc3F)n2)C2CC2)cc2cn(C(F)F)nc12` [Example 169] gave a pEC50 of less than 6.00.

The compound `COc1cc(C(=O)NC[C@](O)(c2ccc(F)c(-c3cc(Cl)c(F)cc3F)n2)C2CC2)cc2cn(C3CC3)nc12` [Example 171] had a pEC50 of less than 6.00.

`COc1cc(C(=O)NC[C@](O)(c2ccc(F)c(-c3cc(F)c(F)cc3F)n2)C2CC2)cc2cn(C3CC3)nc12` [Example 172] had a pEC50 of less than 6.00.

In the case of `COc1cc(C(=O)NC[C@](O)(c2ccc(F)c(-c3cc(Cl)c(F)cc3F)n2)C2CC2)cc2cn(C3(F)CC3)nc12` [Example 173], the negative-log EC50 (pEC50) was less than 6.00.

As to `COc1cc(C(=O)NC[C@](O)(c2ccc(F)c(-c3cc(Cl)c(F)cc3F)n2)C2CC2)cc2cn(C(F)F)nc12` [Example 174], the pEC50 was less than 6.00.

In turn, `COc1cc(C(=O)NC[C@](O)(c2ccc(F)c(-c3cc(Cl)c(F)cc3F)n2)C2CC2)cc2cc(C)cnc12` [Example 175] gave a pEC50 of less than 6.00.

In turn, `COc1cc(C(=O)NC[C@](O)(c2ccc(F)c(-c3cc(Cl)c(F)cc3F)n2)C2CC2)cc2cc(Cl)c(C)nc12` [Example 176] had a pEC50 of less than 6.00.

`COc1cc(C(=O)NC[C@](O)(c2cc(C(C)(C)F)c(F)c(-c3cc(Cl)c(F)cc3F)n2)C2CC2)cc2cc(C3CC3)nn12` [Example 178] had a pEC50 of less than 6.00.

For `COc1cc(C(=O)NC[C@](O)(c2cc(C(C)(C)F)c(F)c(-c3cc(Cl)c(F)cc3F)n2)C2CC2)cc2cn(C(F)F)nc12` [Example 179], the pEC50 is less than 6.00.

Compound `COc1cc(C(=O)NC[C@@](O)(c2ccccc2)c2cc(C(C)(C)F)c(F)c(-c3cc(Cl)c(F)cc3F)n2)cc2cn(C3CC3)nc12` [Example 180] showed a negative-log EC50 (pEC50) of less than 6.00.

As to `COc1cc(C(=O)NC[C@@](O)(c2ccccc2)c2cc(C(C)(C)F)c(F)c(-c3cc(Cl)c(F)cc3F)n2)cc2cc(C3CC3)nn12` [Example 181], the pEC50 was less than 6.00.

As for `COc1cc(C(=O)NC[C@@](O)(c2ccccc2)c2cc(C(C)(C)F)c(F)c(-c3cc(Cl)c(F)cc3F)n2)cc2cn(C(F)F)nc12` [Example 182], the pEC50 was less than 6.00.

`[2H]C([2H])([2H])C(O)(c1cc([C@@](O)(CNC(=O)c2cc(OC)c3nn(C4CC4)cc3c2)C2CC2)nc(-c2cc(Cl)c(F)cc2F)c1F)C([2H])([2H])[2H]` [Example 186] gave a pEC50 greater than 6.00.

On to `[2H]C([2H])([2H])C(O)(c1cc([C@@](O)(CNC(=O)c2cc(OC)n3nc(C4CC4)cc3c2)C2CC2)nc(-c2cc(Cl)c(F)cc2F)c1F)C([2H])([2H])[2H]` [Example 187], for which the pEC50 was greater than 6.00.

Compound `[2H]C([2H])([2H])C(O)(c1cc([C@@](O)(CNC(=O)c2cc(OC)c3nn(C(F)F)cc3c2)C2CC2)nc(-c2cc(Cl)c(F)cc2F)c1F)C([2H])([2H])[2H]` [Example 188] gave a pEC50 greater than 6.00.

In turn, `COc1cc(C(=O)NC[C@@](O)(c2ccccc2)c2cc(C(=O)Nc3ncc[nH]3)c(F)c(-c3cc(Cl)c(F)cc3F)n2)cc2cn(C3CC3)nc12` [Example 190] showed a pEC50 of less than 6.00.

The compound `COc1cc(C(=O)NC[C@@](O)(c2ccccc2)c2cc(C(=O)Nc3ncco3)c(F)c(-c3cc(Cl)c(F)cc3F)n2)cc2cn(C3CC3)nc12` [Example 191] had a pEC50 of less than 6.00.

Turning to `CNC(=O)c1cc([C@@](O)(CNC(=O)c2cc(OC)c3nn(C4CC4)cc3c2)c2ccccc2)nc(-c2cc(Cl)c(F)cc2F)c1F` [Example 192], the pEC50 is less than 6.00.

With `COc1cc(C(=O)NC[C@@](O)(c2ccccc2)c2cc(C(=O)NCC(C)(C)O)c(F)c(-c3cc(Cl)c(F)cc3F)n2)cc2cn(C3CC3)nc12` [Example 193], the pEC50 was less than 6.00.

Compound `COc1cc(C(=O)NC[C@@](O)(c2ccccc2)c2cc(C(=O)NC3CC3)c(F)c(-c3cc(Cl)c(F)cc3F)n2)cc2cn(C3CC3)nc12` [Example 194] showed a pEC50 of less than 6.00.

The compound `COc1cc(C(=O)NC[C@@](O)(c2ccccc2)c2cc(N3C(=O)CC[C@H]3C(N)=O)cc(-c3cc(Cl)c(F)cc3F)n2)cc2cn(C3CC3)nc12` [Example 196] had a pEC50 of less than 6.00.

In turn, `COc1cc(C(=O)NC[C@@](O)(c2ccccc2)c2cc(N3C(=O)CCC3C(N)=O)cc(-c3cc(Cl)c(F)cc3F)n2)cc2cn(C3CC3)nc12` (some centres unmarked) [Example 197] gave a pEC50 of less than 6.00.

Compound `COc1cc(C(=O)NC[C@@](O)(c2ccccc2)c2cc(N3CC[C@H](O)C3)cc(-c3cc(Cl)c(F)cc3F)n2)cc2cn(C3CC3)nc12` [Example 198] gave a pEC50 of less than 6.00.
